Source: patent US20110123623A1, “RHAMNOLIPID MECHANISM” (priority 2009, published 2011)

Tests used:
patients = experiment: Treatment of patients with seborrheic dermatitis, lichen planus and dermatitis circumscripta unilocularis; assay type: in vivo, human
Method: Twelve psoriatic hospital bed patients, and one patient with seborrheic dermatitis and psoriasis, one patient with lichen planus and one with dermatitis cicumscripta unilocullaris as an out clinic patient were recruited as study volunteers.
Patients with seborhheic dermatitis, lichen planus and dermatitis unilocularis circumscripta eczematoides were cured.
This condition, confirmed with clinical appearance and histopahological findings, was treated with different standard approaches, (mostly) steroids, but condition worsened with tendency to spread further to the large wound covered by thick crust. Following the treatment with 1% Di-rhamnolipid W3CTS, eucerin ointment was introduced with overnight inclusions during four weeks. […] Patient died by natural course 15 years after treatment had been finished.

[1] = test system: normal Sprague-Dawley rats; experiment: Full-thickness burn wounds, topical treatment; assay type: in vivo, rat
Method: The effects of Di-rhamnolipid W3CTS on full-thickness burn wounds in normal Sprague-Dawley rats.
Di-rhamnolipid W3CTS was prepared in a eucerine ointment applied topically on full-thickness burn wounds in normal Sprague-Dawley rats covering 5% of the whole skin area. The rate of wound closure was measured over the period of 45 days. The collagen content was evaluated microscopically, by performing densitometric analysis on Verhoeff's stained histopathological slides of wound biopsies taken at the end of 45th day of di-rhamnolipid treatment. The treatment of full thickness-burn wounds covering 5% of the whole body skin area with topical applications (2 per day) of 0.1% di-rhamnolipid in eucerine ointment accelerated the closure of wounds on day 21 of the treatment by 32% compared to the control (p<0.05). […] The results of this study raise the possibility of potential efficacy of di-rhamnolipid in accelerating normal wound healing and perhaps in overcoming defects associated with healing failure in chronic wounds.

[2] = test system: Guinea pig lung LTC4 synthetase; experiment: Leukotriene C4 synthetase inhibition (EIA); assay type: biochemical; conditions: highest concentration 1,000 μM/ml; DMSO 0.5%
Method: Leukotriene C4 (LTC4) synthetase is involved in the formation of LTC4 from LTA4. Taken together with other assays for enzymes involved in the lipoxygenase pathway (e.g. 5-lipoxygenase, LTA4 hydrolase), a locus of action can be established for agents which inhibit the formation of leukotrienes. Guinea pig lung LTC4 synthetase was used. Test compound and/or vehicle was pre-incubated with 180 μg/ml enzyme in phosphate buffer pH 7.8 for 15 minutes at 37° C. The reaction is initiated by the addition of 2.5 μg/ml LTA4 methyl ester for another 30 minute incubation period and terminated by further addition of ice-cold methanol. Determination of the amount of LTC4 formed is read spectrophotometrically by enzyme immunoassay kit (EIA). W3CTS was screened at 1,000; 100; 10; and 1 μM/ml. Solvent was DMSO 0.5%. Sulfazine was used as a reference. Inhibition was 81% at the highest concentration of 1,000 μM/ml.

[3] = test system: neonatal human keratinocytes; experiment: Colony forming efficiency of neonatal human keratinocytes; assay type: cell-based; conditions: GM medium with 10% fetal bovine serum
Method: Colony forming efficiency of neonatal human keratinocytes treated with Di-rhamnolipid W3CTS.
The stimulation was most significant at 100 μg/ml and 50 μg/ml the colony forming ability was increased by 34% at 50 μg/ml of Di-rhamnolipid W3CTS. The results are consistent with the effects of Di-rhamnolipid W3CTS on the neonatal human keratinocyte viability in GM with 10% fetal bovine serum.

[4] = test system: chronic decubitus ulcer in humans; experiment: Treatment of chronic decubitus ulcer; assay type: in vivo, human; conditions: topical 0.1% eucerin ointment; single case
Text: Treatment of Chronic Decubitus Ulcer with Di-Rhamnolipid W3CTS

[5] = test system: B-lymphocyte cells isolated from the spleen of balb/c mice; experiment: Mouse B-cell proliferation (thymidine incorporation); assay type: cell-based
Method: T-lymphocyte cells isolated from thymus of balb/c mice weighing 17±1 g were used. Test compound and/or vehicle was incubated with the cells (4×10^6/ml) in the presence of 3 μg/ml concanavalin A (Con A) overnight. Thymidine incorporation was assessed by liquid scintillation counting. B-lymphocyte cells isolated from the spleen of balb/c mice weighing 17±1 g were used. Test compound and/or vehicle was incubated with the cells (1.5×10^6/ml) in the presence of 10 μg/ml lipopolysaccharide (LPS) in AIM-V medium pH 7.4 at 37° C., during 24 hours. [^3H]Thymidine (120 nM) was then added for an additional overnight incubation period. Thymidine incorporation was assessed by liquid scintillation counting. […] T-cells isolated from mouse thymus were inhibited at the concentration of 10 μM by 24% and in the presence of concanavalin T-cells proliferation was inhibited 43%.

[6] = test system: neonatal human keratinocytes; experiment: Neonatal human keratinocyte cell culture (proliferation, viability, apoptosis); assay type: cell-based
Method: On the contrary, Di-rhamnolipid W3CTS in the presence of serum and at high concentration of calcium increased the proliferation and the viability of keratinocytes and decreased the caspase activity. At the concentration of 50 μg/ml, Di-rhamnolipid W3CTS maximally stimulated the proliferation (34%) and the viability of keratinocytes (25%) as compared to control, and decreased the apoptosis (49%).

[7] = test system: Swiss-Webster female mice; experiment: TPA/pyr induced acute dermal ear inflammation (Part B); assay type: in vivo, mouse
Method: Effects of Di-rhamnolipid W3CTS on TPA/pyr induced acute inflammation in the ears of Swiss-Webster female mice.
The aim of this study was two-fold. In Part A the potential of a single topical application of W3CTS to cause acute cutaneous irritation (up to 24 hours) was measured in a mouse ear assay system. […] The aim of Part B was to determine the effects of a single topical administration of W3CTS on acute dermal inflammation induced by TPA/pyr, Part B was designed to differentiate the ability of Di-rhamnolipid W3CTS at concentration 1 mg/ml to prevent, inhibit or reverse induced ear inflammation.
The time of maximal reduction of inflammation was dependent on the time of treatment, with respect to induction. The effect of Di-rhamnolipid W3CTS was moderate (up to 32% decrease in inflammation) but sustained. […] Post treatment reversed established inflammation by 32% at 11 hours. […] It may be possible to increase the anti-inflammatory effect of Di-rhamnolipid W3CTS by use of a different dose formulation, or by repeated treatments.

CCCCCCCC(CC(=O)O)OC(=O)CC(CCCCCCC)OC1OC(C)C(O)C(O)C1OC1OC(C)C(O)C(O)C1O (stereo not shown) [Di-rhamnolipid W3CTS]
outcome in seborhheic dermatitis, lichen planus and dermatitis unilocularis circumscripta eczematoides (patients; 1.0% eucerin ointment): cured
skin over the wound (patients; after one year): looking normal
wound healing in dermatitis circumscripta unilocularis (patients; person, 1% eucerin ointment, overnight inclusions during four weeks): The wound started to heal
decrease of collagen content in burn wounds vs vehicle ([1]; 0, 1% in eucerine, biopsies at end of 45th day, p<0.05): 47.5%
acceleration of closure of wounds vs control ([1]; 0.1% in eucerine ointment, 2 per day topical, day 21, p<0.05): 32%
wound closure ([1]; 0.1% ointment, day 35): wounds closed in all animals
Inhibition of LTC4 synthetase [2]: 81%
colony forming ability increase ([3]; 50 μg/ml): 34%
growth of keratinocyte colonies ([3]; 100, 50, 10 and 1 μg/ml): stimulated the growth of keratinocyte colonies
healing of chronic decubitus ulcer [4]: profound beneficial effect on the healing
effect on B-cell proliferation ([5]; 10 μM in 0.5% DMSO, without LPS): did not have any effect
inhibition at 10 µM ([5]; Mus musculus, B-cell, 10 μM, in the presence of LPS): ≤ 54%
decrease of apoptosis of keratinocytes ([6]; 50 μg/ml, serum, high calcium): 49%
stimulation of proliferation of keratinocytes vs control ([6]; 50 μg/ml, serum, high calcium): 34%
stimulation of viability of keratinocytes vs control ([6]; 50 μg/ml, serum, high calcium): 25%
cell proliferation and viability, keratinocytes ([6]; 200 μg/ml and 500 μg/ml, causing necrosis): fully inhibited cell proliferation and viability
proliferation and viability of keratinocytes ([6]; without serum, low calcium, 100 μg/ml, caused necrosis): fully inhibited proliferation and viability
decrease in inflammation (overall) ([7]; 1 mg/ml topical, maximal effect): up to 32%
topical anti-inflammatory efficacy ([7]; 1 mg/ml, 1.0% w/v, single topical administration, 24 hours time-course): effective as a topical therapeutic anti-inflammatory agent
inhibition of inflammation, concurrent treatment ([7]; at 6 hours): about 32%
reversal of established inflammation, post treatment ([7]; at 11 hours, given 2 hours after induction): 32%
protective effect, pretreatment ([7]; given one hour prior to induced inflammation): short duration as a protective agent
